Experimental data as given in EP0449955B1, “SYNTHETIC HIV-LIKE PEPTIDES, THEIR COMPOSITIONS AND USES” (CLARITY TECHNOLOGIES INCORPORATED, priority 1988, dated 1996).
Entries after “also recorded” stand apart in the source; their conditions may differ.

Assays:
antibodies to HIV-1 [1] = test: Rapid test with peptide-BSA-colloidal gold conjugate; type: binding, human
Procedure: (§1) A test device for performing rapid tests in less than 15 minutes was prepared as illustrated in Figures 14 and 15. Referring to Figures 14 and 15, the device comprises a plastic slide 10 (approximately 1 inch wide by 3/16 inch thick by 3 1/4 inches long) having a plurality of funnel-like wells 12, each having a capacity of approximately 200 microliters, an upper inflow tract rim 14 diameter of approximately 9 mm and a lower outflow tract 16 diameter of approximately 2 mm. The undersurface of the outflow tract 16 is designed so as to provide a smooth even contact with a membrane filter 18 placed next to it in the apparatus. The membrane filter separates reactants passing through it by size, retaining those particles above a predetermined size, such as above 0.22 µm, or above 0.45 µm in size (depending upon the specific filter chosen), though other filters placed into the apparatus might separate by binding or affinity (i.e. nitrocellulose, glass). […]
An 8 ml quantity of peptide IWGCSGKLICTTAVPGC (A280nm∼=0.50) conjugated via its C-terminus and SMCC to BSA was dialyzed overnight against 2L of DI water at 4°C. […] The A₅₈₀ of each well was determined and the lowest values, indicating best protection, were at pH6.1>pH6.0>> other pH's. Using larger amounts of gold sol at pH6.1 the minimal amount of protective protein was determined to be 70 microliters of the dialyzed peptide-BSA (A₂₈₀ = 0.45). […]

antibodies to HIV-1 [2] = test: EIA of HIV-1 gp41 peptide-protein conjugates against serum pools; type: binding, human; settings: peptide conjugated via C-terminus to BSA (SMCC), coated at 10 micrograms peptide/ml; 1:101 dilution of HIV+ serum pool; Figure 1
Procedure: (§2) The free peptides or peptide-protein conjugates of Figures 1-13 were initially screened for immunoreactivity by coating each well of polystyrene microtiter EIA plates (Costar, Cambridge, Massachusetts, U.S.A.) with 0.2 ml amounts of concentrations of 5-50 micrograms/ml peptide in Tris buffer, 10 mM, pH 8.0, at 4°C overnight. Peptides or peptide-protein conjugates showing immunoreactivity by EIA were then further diluted for coating to determine the minimal concentrations required that allowed maximal immunoreactivity with antibodies to HIV, and minimal nonspecific reactivity with normal sera. The EIA tests were performed as follows: The coating solution was removed from each well and the wells were blocked at 37°C for 30 minutes with a solution of 50 mM phosphate, 100 mM NaCl, pH 7.4, 1% BSA, 0.5% gelatin. The wells were then aspirated dry with a microtiter plate washer and washed 3 times with a solution of 50 mM phosphate, 100 mM NaCl, .05% Tween 20, (trademark) pH 7.4 (PBST). A 1:101 dilution (in PBST with 1% BSA, 1% NRS) of the primate serum to be tested was then added as 0.2 ml to each washed well and the plates were incubated at 37°C for 30 minutes. The plates were then washed x 3 with PBST, and 0.2 ml amounts of a 1:2000 dilution of goat anti-human (GAH) peroxidase enzyme conjugate (Organon Teknika, Cappel, Melvern, Pennsylvania, U.S.A.) that recognized human IgG, IgA, and IgM were added to each well, and the plates were incubated for 30 minutes at 37°C. The plates were then washed x 3 with PBST and incubated with 0.2 ml/well substrate consisting of 0,1M citric acid pH 5.2, 0.1 mg/ml o-phenylene diamine, 0.01% H₂O₂, at room temperature in the dark for 10 minutes. Reactions were stopped with 50 microliters of 4N H₂SO₄, and the color development was quantitated in a Multiscan plate reader at A₄₉₂. In each series of experiments positive and negative controls were included, and all tests were done in duplicate or quadruplicate. Most peptides and peptide conjugates were initially screened against a 1:101 dilution of pools of HIV positive or HIV negative sera, and the same serum pool was used to allow quantitative comparison of immunoreactivity of different free peptides or peptide-protein conjugates.
The peptides in Figures 1 and 5 were synthesized as described in Example 1 and conjugated to KLH or BSA as described in Example 2. These peptide-protein conjugates were coated to polystyrene microtiter plates all at a concentration 10 micrograms peptide/ml and evaluated for immunoreactivity as described in Example 3, using a 1:101 dilution of a pool of sera (HIV+/SIV+, respectively) containing antibodies to HIV-1 (Figure 1) or to HIV-2 (Figure 5), as well as pooled serum (HIV-/SIV-, respectively) containing no antibodies to HIV-1 or HIV-2. […] Since sera from patients infected with HIV-2 are relatively unavailable in the United States, the immunoreactivity of HIV-2 synthetic peptides was assessed using serum from macaques infected with SIV, obtained from the University of Washington Primate Center, Seattle, Washington, U.S.A. The AA sequence of SIV is nearly identical to HIV-2 in the region of the peptides synthesized (see Myers et al., Human Retroviruses and AIDS, 1988. A compilation of nucleic acid and amino acid sequences. Los Alamos National Laboratory, Los Alamos, New Mexico, 87545, USA).

antibodies to HIV-1 [3] = test: EIA of peptide-carrier conjugates with individual human sera; type: binding; settings: BSA-SMCC conjugate; for immunoreactivity with positive sera: 98 sera containing antibodies to HIV-1, Figures 10B, 10C
Procedure: as §2
Figure 10A illustrates the immunoreactivity of synthetic natural peptides 2S06 and 2S09 (Figure 1) when conjugated via their C-terminal GC spacer to KLH using the heterobifunctional linker MBS. […] However, the immunoreactivity of many of the positives was low (A₄₉₂ less than 1.0), and some of the negative samples had A₄₉₂ values slightly above 0.20, resulting in minimal discrimination between negatives and positives. This poor discrimination led to a search for an improved carrier protein and/or linker.
Figure 10B illustrates the reactivity of synthetic natural peptide IWGCSGKLICTTAVPGC (2S09) when conjugated through its C-terminus to BSA via the heterobifunctional linker SMCC. […] Improvement in assay performance as compared with results of Example 5A is noted with respect to negative samples having lower A₄₉₂ values, and most positive samples having higher A₄₉₂ values. […] Because of the possibility that some of the low responsiveness might be due to antigenic differences of genetic variants in the region of this epitope, as reported for HIV isolates from Zaire (Gnann et al., Science 237:1346-1349, 1987), the natural sequence variant peptide 5S67 (Figure 3) was synthesized, chemically linked to BSA with SMCC, and tested against the same sera, plus one additional negative serum sample (Figure 10C). […] This instigated a search for unnatural sequence variants of peptide 2S09 that would retain high immunoreactivity with most sera that contained antibodies to HIV-1, and yet retain low reactivity with sera devoid of antibodies to HIV. […]

antibodies to HIV-1 [4] = test: Rapid EIA with latex-immobilized peptide reagents, HIV-1; type: binding, human; settings: passive adsorption
Procedure: as §1
The mixture was shaken gently a room temperature for 1 hour, and then washed 3 times by centrifugation at 9,000 x g for 10 minutes, removal of supernate, and resuspension of the pellet in a 12-14 ml volume of deionized water, pH 4.5. […] It was determined that this stock solution of latex coated with peptide-BSA conjugate could be diluted 1:10-1:30 with latex diluent buffer for use in the rapid EIA described below. […]

[5] = EIA of 4S36 as free peptide or BSA conjugate on 3 polystyrene microtiter plates; type: binding, human; settings: BSA-peptide conjugate, plastic type 1; Figure 9
Source text: Antigenicity of each unnatural peptide is indicated by its ability as a free peptide to inhibit binding of HIV-1 antibodies to a BSA conjugate of peptide 2S09. […] Antigenicity of each peptide is indicated by its ability as a free peptide to inhibit binding of HIV-1 antibodies to a BSA conjugate of either 2S09 or peptide 5S67, a natural sequence variant reported in HIV-1 isolates from Zaire (Gnann et al., Science 237:1346-1349, 1987; and Alizon et al., Cell 46:36, 1986). […] Antigenicity of each peptide is indicated by its ability as a free peptide to inhibit binding of SIV/HIV-2 antibodies to a BSA conjugate of peptide 2S27. […] AA variants of peptide 2S27 are highlighted. […] Different groups of peptides were initially conjugated to BSA as indicated and the conjugates of each pool were first tested. […] All peptides were utilized C-terminally conjugated to BSA. […]
The free peptides or peptide-protein conjugates of Figures 1-13 were initially screened for immunoreactivity by coating each well of polystyrene microtiter EIA plates (Costar, Cambridge, Massachusetts, U.S.A.) with 0.2 ml amounts of concentrations of 5-50 micrograms/ml peptide in Tris buffer, 10 mM, pH 8.0, at 4°C overnight. […] Reactions were stopped with 50 microliters of 4N H₂SO₄, and the color development was quantitated in a Multiscan plate reader at A₄₉₂. […]

Sequence | result with positive serum samples (red-purple dots) (antibodies to HIV-1 [1]; 20 sera containing antibodies to HIV-1, diluted 1:100) | result with negative sera (antibodies to HIV-1 [1]; 20 sera without antibodies to HIV-1) | immunoreactivity with HIV-1 antibodies (antibodies to HIV-1 [2]) | immunoreactivity with positive sera (antibodies to HIV-1 [3]; 11) | performance of free peptide passively adsorbed to latex (antibodies to HIV-1 [4]) | positive/negative ratios [5] | reactivity with sera that did not contain antibodies to HIV-1 (antibodies to HIV-1 [3]; 85-87 negative sera, Figures 10C, 11) | A492 values of positive samples (none less than) (antibodies to HIV-1 [3]; 98 positive samples, Figure 11)
IWGCSGKLICTTAVPGC [2S09] | 19 of the 20 | only the white color of the underlying membrane remained | maximally immunoreactive; also recorded: higher reactivity; also recorded: Significant immunoreactivity; also recorded: slightly superior immunoreactivity | very low immunoreactivity |  |  |  | 
VWGCSGKLICTTAVPGC [4S36] |  |  |  | striking increase in immunoreactivity of the low positives | produced an immunoreactive reagent | ≥ 20 | remained acceptably low | ≥ 1.0
